Experimental data from ChEMBL document CHEMBL1201862, “PubChem BioAssay data set” (2004).
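Protocol summary: plate cells (96-well), add compound at 5 concentrations, incubate 48 h, interpolate endpoints linearly. GI50 marks 50% less growth.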 Calls of active or inactive are those of the source. Cut-off read from the data, not from the text of the source: active = GI50 up to about 1.1 µM and inactive = higher.

Tests used:
Experiment in all cases: growth of human tumour cells (NCI), 48 h
[1] = system: OVCAR-3
[2] = system: Hs-578T
[3] = system: CAKI-1
[4] = system: U-251
[5] = system: DU-145
[6] = system: M14
[7] = system: SF-295
[8] = system: CCRF-CEM
[9] = system: A549
[10] = system: NCI-H23
[11] = system: SK-OV-3
[12] = system: SK-MEL-28
[13] = system: TK-10
[14] = system: BT-549
[15] = system: MOLT-4
[16] = system: HOP-62
[17] = system: UACC-62
[18] = system: HOP-92
[19] = system: NCI-H226
[20] = system: A498

Measured: GI50

O=C1CC(/C=C/c2ccco2)=C(O)C1=O
inactive: [1] 13 µM | [2] 16.7 µM | [3] 14.6 µM | [4] 13.6 µM | [5] 16.2 µM | [6] 14.8 µM | [7] 19.5 µM | [8] 3 µM | [9] 23.9 µM | [10] 11.6 µM | [11] 21.9 µM | [12] 28.8 µM | [13] 22.5 µM | [14] 8.49 µM | [15] 14 µM | [16] 1.84 µM | [17] 15.3 µM | [18] 13.8 µM | [19] 22 µM

CC(C)(CC1(C)NC(=O)NC1=O)OCc1ccccc1 (stereo not given)
inactive: [1] > 100 µM | [2] > 100 µM | [3] > 100 µM | [4] > 100 µM | [5] > 100 µM | [6] > 100 µM | [7] > 100 µM | [9] > 100 µM | [20] > 100 µM | [10] > 100 µM | [11] > 100 µM | [12] > 100 µM | [13] > 100 µM | [14] > 100 µM | [16] > 100 µM | [17] > 100 µM | [18] > 100 µM

O=C1C(Cl)C(c2cc3cc(Br)ccc3nc2Cl)N1c1c(Cl)cccc1Cl (stereo not given)
inactive: [1] 18.2 µM | [2] > 25 µM | [3] 8.65 µM | [5] > 25 µM | [6] 22.1 µM | [7] > 25 µM | [8] 7.53 µM | [9] > 25 µM | [20] > 25 µM | [10] 20.4 µM | [11] > 25 µM | [12] > 25 µM | [13] > 25 µM | [14] 10.2 µM | [15] 4.9 µM | [16] > 25 µM | [17] 17.4 µM | [18] 9.79 µM | [19] 15.8 µM

O=c1n(-c2ccccc2)c(=O)n2n1C1C=CC2CCCCCC1
inactive: [1] 4.99 µM | [2] 36.1 µM | [3] > 100 µM | [4] > 100 µM | [5] > 100 µM | [6] > 100 µM | [7] > 100 µM | [8] > 100 µM | [9] > 100 µM | [10] > 100 µM | [11] > 100 µM | [12] > 100 µM | [13] > 100 µM | [14] 97.3 µM | [15] > 100 µM | [16] > 100 µM | [17] > 100 µM | [18] > 100 µM | [19] > 100 µM

Cc1cccc(NC(=O)/C=C/c2ccccc2)c1C
inactive: [1] > 100 µM | [2] 37.7 µM | [3] > 100 µM | [4] > 100 µM | [5] > 100 µM | [6] > 100 µM | [7] > 100 µM | [8] > 100 µM | [9] > 100 µM | [20] > 100 µM | [10] > 100 µM | [11] > 100 µM | [12] > 100 µM | [13] > 100 µM | [14] > 100 µM | [15] > 100 µM | [16] 85.9 µM | [17] > 100 µM | [19] > 100 µM

COc1cc(C(O)CCBr)c(OC)cc1C (stereo not given)
inactive: [1] 13.4 µM | [2] 25.1 µM | [3] 14.9 µM | [4] 33.2 µM | [5] 43.2 µM | [6] 4.6 µM | [7] 36 µM | [8] 3.07 µM | [9] > 100 µM | [20] > 64.6 µM | [10] 14.3 µM | [11] 35.3 µM | [12] 24.4 µM | [13] > 66.8 µM | [14] 23 µM | [16] 28.6 µM | [17] 14.6 µM | [18] 23.6 µM | [19] 32.9 µM

CSc1ccc(-c2cc(-c3nc4ccccc4[nH]3)nc3[nH]c(-c4nc5ccccc5[nH]4)cc(=O)c23)cc1
inactive: [1] > 100 µM | [2] > 100 µM | [3] > 100 µM | [4] 93.8 µM | [5] > 100 µM | [6] 82.4 µM | [7] 86.1 µM | [8] 73.6 µM | [9] > 100 µM | [10] > 100 µM | [11] > 100 µM | [13] > 100 µM | [14] 85.3 µM | [15] > 100 µM | [16] 84.5 µM | [17] 92.5 µM | [18] > 100 µM | [19] 84.5 µM
